This is an account of results in US8329904B2, “Azacyclic derivatives” (Hoffmann-La Roche Inc., priority 2009, dated 2012).

This experiment has as its target T1, human HSL (Homo sapiens, UniProt Q05469).
T1 construct: overlapping PCR to generate a full length human HSL ORF with a 3′-His6 tag; His6 (C); made in house; host or cells: High 5 insect cells (baculovirus, pFast-BAC)
T1 sequence (Q05469 1-1076): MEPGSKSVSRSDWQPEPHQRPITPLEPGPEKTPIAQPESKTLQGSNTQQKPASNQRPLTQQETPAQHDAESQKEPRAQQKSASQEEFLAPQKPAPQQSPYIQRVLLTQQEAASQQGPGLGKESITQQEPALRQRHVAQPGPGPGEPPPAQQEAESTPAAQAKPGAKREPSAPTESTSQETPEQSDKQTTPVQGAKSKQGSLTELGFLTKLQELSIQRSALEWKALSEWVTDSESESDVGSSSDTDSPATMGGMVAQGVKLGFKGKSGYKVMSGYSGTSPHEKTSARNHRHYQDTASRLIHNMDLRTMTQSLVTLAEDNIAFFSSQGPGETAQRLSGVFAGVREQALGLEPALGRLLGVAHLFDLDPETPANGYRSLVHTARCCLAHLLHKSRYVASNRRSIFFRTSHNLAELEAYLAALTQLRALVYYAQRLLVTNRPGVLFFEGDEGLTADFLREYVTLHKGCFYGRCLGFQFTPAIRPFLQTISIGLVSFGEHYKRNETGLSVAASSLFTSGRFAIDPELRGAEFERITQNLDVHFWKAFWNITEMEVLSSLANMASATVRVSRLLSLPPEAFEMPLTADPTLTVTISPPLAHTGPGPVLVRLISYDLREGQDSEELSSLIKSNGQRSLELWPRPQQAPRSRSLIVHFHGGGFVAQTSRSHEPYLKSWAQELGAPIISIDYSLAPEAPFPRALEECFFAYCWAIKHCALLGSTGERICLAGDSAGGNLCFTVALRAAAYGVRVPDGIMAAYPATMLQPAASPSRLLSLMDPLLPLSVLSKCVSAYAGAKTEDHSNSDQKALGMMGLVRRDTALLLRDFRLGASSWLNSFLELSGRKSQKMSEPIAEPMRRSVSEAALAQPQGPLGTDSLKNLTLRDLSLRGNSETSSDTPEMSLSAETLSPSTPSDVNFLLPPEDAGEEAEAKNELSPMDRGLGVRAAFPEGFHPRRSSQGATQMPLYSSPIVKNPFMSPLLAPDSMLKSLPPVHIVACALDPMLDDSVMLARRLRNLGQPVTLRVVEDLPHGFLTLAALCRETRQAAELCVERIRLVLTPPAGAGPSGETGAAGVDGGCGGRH
In words: Human Hormone-Sensitive Lipase (HSL) Enzyme Inhibition Assay. It is filed as biochemical. Conditions: colorimetric assay, 2,3-dimercapto-1-propanol tributyrate (DMPT) substrate, 37° C. for 20 minutes, absorbance at 405 nm; read-out: HSL hum IC50. The protocol:
Production of Human Full Length Hormone Sensitive Lipase-His^6
1) Cloning: cDNA was prepared from commercial human brain polyA-+ RNA and used as a template in overlapping PCR to generate a full length human HSL ORF with a 3′-His6 tag. This full length insert was cloned into the pFast-BAC vector and the DNA-sequence of several single clones was verified. DNA from a correct full length clone with the 3′His6 tag was used to transform the E. coli strain DH10BAC. Resulting bacmid DNA was used to generate a titered baculovirus stock for protein generation.
Cells were thawed. […] was done at 3×30 sec., Lubrol PX was added to 0.2% final concentration followed by stirring for 15 min. at 4° C. and centrifugation at 25 k×g, 60 min., 4° C. […] Supernatant was removed, the resin washed in the centrifuge vessel using 5 volumes of Base Buffer containing 0.2% Lubrol PX. Centrifugation was done again, then the supernatant discarded. The resin wass poured onto a 0.8 μm membrane in a disposable filter unit (Nalge 450-0080), and washed with 5 volumes of Base Buffer containing 0.2% Lubrol PX. It was then washed with 30 volumes of Base Buffer containing 60 mM imidazole pH 7.5 at 4° C. The protein was eluated with 5 volumes of 25 mM Tris-Cl, 300 mM NaCl, 200 mM imidazole, 10 mM 2-mercaptoethanol, pH 7.5 at 4° C. by tumbling resin with buffer end-over-end, 30 min., 4° C. The resin was captured on a 0.2 μm membrane disposable filter unit (Millipore SCGP U02 RE) and the eluate collected in the reservoir. The eluate was concentrated using a 30 k MWCO centrifugal filter device (Sartorius Vivascience Vivacell 100, VC1022), to 20 ml. It was then dialyzed overnight at 4° C., two times against 2 L of 10% glycerol, 25 mM Tris-Cl, 300 mM NaCl, 0.2 mM EDTA, 0.2 mM DTT, pH 7.5 at 4° C. The protein was filtered using a 0.22 μm disposable filter unit (Millipore SCGP00525). The protein concentration was calculated from absorbance at 280 nm, using 280=0.67 cm-1 mg-1. […] The protein was stored at −80° C.
Human Hormone-Sensitive Lipase (HSL) Enzyme Inhibition Assay:
HSL enzyme activity was measured by a colorimetric assay using 2,3-dimercapto-1-propanol tributyrate (Aldrich, St. Louis, Mo.) as a substrate. Typically, 1.5 mM 2,3-dimercapto-1-propanol tributyrate (DMPT) in 100 mM MOPS, pH 7.2, 0.2 mg/ml fatty acid-free BSA was prepared by sonication at 4° C. to homogenous suspension. Test compounds (2 mM stock in DMSO) were diluted 3 fold in series in DMSO. Compound solutions were diluted 24 fold in 1.5 mM DMPT containing solution and 18 ul per well was added to 384-well microplates (Corning Costar). Twelve microliters per well of human HSL (15 ug/ml) was added and the reaction mixture was incubated at 37° C. for 20 minutes. Six microliters of 12 mM dithio-bis-(2-nitrobenzoic acid) (DTNB) in DMSO plus 1.2% SDS and 0.6% Triton X-100 were added and the mixture was incubated at room temperature for 15 minutes. Product production was monitored by reading absorbance at 405 nm on an Envision Reader (PerkinElmer Life and Analytical Sciences, Shelton, Conn.).
Broadly, the IC50 is the point on the concentration scale where inhibition reaches its midpoint. Consider `O=C1N(c2ccc(OC(F)(F)F)cc2)CCCC12CCN(S(=O)(=O)c1ccccc1)CC2` [Example 9, 9-Benzenesulfonyl-2-(4-trifluoromethoxy-phenyl)-2,9-diaza-spiro[5.5]undecan-1-one], for which the IC50 was found to be 50 nM.

Take `CC(C)c1ccc(N2CCC3(CCN(S(=O)(=O)c4ccccc4)CC3)C2=O)cn1` [Example 10, 8-Benzenesulfonyl-2-(6-isopropyl-pyridin-3-yl)-2,8-diaza-spiro[4.5]decan-1-one]: the IC50 worked out at 130 nM.

For `O=C1N(c2ccc(Cl)nc2)CCC12CCN(S(=O)(=O)c1ccccc1)CC2` [Example 11, 8-Benzenesulfonyl-2-(6-chloro-pyridin-3-yl)-2,8-diaza-spiro[4.5]decan-1-one], the IC50 came out at 1700 nM.

With `O=C1N(c2cccnc2)CCC12CCN(S(=O)(=O)c1ccccc1)CC2` [Example 12, 8-Benzenesulfonyl-2-pyridin-3-yl-2,8-diaza-spiro[4.5]decan-1-one], the IC50 came out at 26000 nM.

In the case of `O=C(CCC1CC1)N1CCC2(CC1)CCN(c1ccc(OC(F)(F)F)cc1)C2=O` [Example 13, 8-(3-Cyclopropyl-propionyl)-2-(4-trifluoromethoxy-phenyl)-2,8-diaza-spiro[4.5]decan-1-one], the IC50 came to 150 nM.

As for `CC(C)(C)CCC(=O)N1CCC2(CC1)CCN(c1ccc(OC(F)(F)F)cc1)C2=O` [Example 14, 8-(4,4-Dimethyl-pentanoyl)-2-(4-trifluoromethoxy-phenyl)-2,8-diaza-spiro[4.5]decan-1-one], the IC50 is 170 nM.

For the compound `CC(C)Oc1ccc(N2CCC3(CCN(S(=O)(=O)N4CCOCC4)CC3)C2=O)cc1` [Example 15, 2-(4-Isopropoxy-phenyl)-8-(morpholine-4-sulfonyl)-2,8-diaza-spiro[4.5]decan-1-one], the IC50 was found to be 360 nM.

`COc1ccc(N2CCC3(CCN(S(=O)(=O)c4ccccc4)CC3)C2=O)nn1` [Example 16, 8-Benzenesulfonyl-2-(6-methoxy-pyridazin-3-yl)-2,8-diaza-spiro[4.5]decan-1-one]: the IC50 was determined as 15000 nM.

For `CCc1ccc(N2CCC3(CCN(S(=O)(=O)c4ccccc4Cl)CC3)C2=O)cc1` [Example 17, 8-(2-Chloro-benzenesulfonyl)-2-(4-ethyl-phenyl)-2,8-diaza-spiro[4.5]decan-1-one], the IC50 was found to be 30 nM.

Regarding `CC(C)CS(=O)(=O)N1CCC2(CCN(c3ccc(OC(F)(F)F)cc3)C2=O)CC1` [Example 18, 8-(2-Methyl-propane-1-sulfonyl)-2-(4-trifluoromethoxy-phenyl)-2,8-diaza-spiro[4.5]decan-1-one], the IC50 turned out to be 80 nM.

Consider `CC(C)(C)CS(=O)(=O)N1CCC2(CCN(c3ccc(OC(F)(F)F)cc3)C2=O)CC1` [Example 19, 8-(2,2-Dimethyl-propane-1-sulfonyl)-2-(4-trifluoromethoxy-phenyl)-2,8-diaza-spiro[4.5]decan-1-one], for which the IC50 is 40 nM.

Consider `CCc1ccc(N2CCC3(CCN(C(=O)CC(C)(C)C)CC3)C2=O)cc1` [Example 20, 8-(3,3-Dimethyl-butyryl)-2-(4-ethyl-phenyl)-2,8-diaza-spiro[4.5]decan-1-one], for which the concentration for half-maximal inhibition (IC50) came to 240 nM.

Take `CCc1ccc(N2CCC3(CCN(S(=O)(=O)N4CCOCC4)CC3)C2=O)cc1` [Example 21, 2-(4-Ethyl-phenyl)-8-(morpholine-4-sulfonyl)-2,8-diaza-spiro[4.5]decan-1-one]: the IC50 stood at 270 nM.

For the compound `CC(C)CS(=O)(=O)N1CCC2(CCN(c3ccc(OC(C)C)cc3)C2=O)CC1` [Example 23, 2-(4-Isopropoxy-phenyl)-8-(2-methyl-propane-1-sulfonyl)-2,8-diaza-spiro[4.5]decan-1-one], the IC50 worked out at 160 nM.

Regarding `CCc1ccc(N2CCC3(CCN(S(=O)(=O)CC(C)C)CC3)C2=O)cc1` [Example 24, 2-(4-Ethyl-phenyl)-8-(2-methyl-propane-1-sulfonyl)-2,8-diaza-spiro[4.5]decan-1-one], the 50% inhibitory concentration (IC50) is 100 nM.
